In paper PMC7542159, “Receptor occupancy of dual glucagon-like peptide 1/glucagon receptor agonist SAR425899 in individuals with type 2 diabetes” (Scientific Reports, 2020):

What was measured:
GLP1R = settings: higher at GLP1R; cited from earlier work
Source text: Noteworthy, the in vitro binding affinity for SAR425899 at the GLP1R was ~ fivefold higher than at the GCGR. This ratio of binding capacities has been chosen to prevent unwanted glucagon effects like increase of blood glucose. In fact, an increase of blood glucose has not been observed so far in a clinical setting. […] The exposure achieved with this dose in humans, however, might be too low to ...

[1] = Plasma pharmacokinetics of SAR425899 (LC-MS/MS); settings: human, in vivo, sc, 0.2 mg
Procedure: Blood samples were collected at multiple time points after the last dose on Day 20 for measurement of SAR425899 in plasma using a liquid chromatography with tandem mass spectrometry (LC–MS/MS) method. Peak plasma concentrations (Cmax), time to Cmax (tmax) and area under the plasma concentration versus time curve for the last measurable plasma concentration (AUC0–last) were calculated using noncompartmental methods.

[2] = Liver volume on CT images; assay type: in vivo, human; settings: for Liver volume change: Fig. 2B
Procedure: Both factors could potentially quantitatively impact the binding of [^68Ga]Ga-DO3A-Tuna-2 in the liver. Thus, the SUV55min at follow-up investigation was proportionally corrected for the decrease in liver volume compared to baseline. Additionally, SUV55min at baseline was corrected to the plasma glucagon value of the individual at follow-up to enable direct comparison between the PET assessments.
Marked weight loss and glucose lowering, as observed in this study, may have rapid and meaningful effects on the hepatic volume in short time periods, due primarily to the depletion of liver glycogen, which in turn bind large amounts of water. A reduction of the liver volume due to decrease in glycogen and water could likely affect the PET data by increasing the hepatocyte density (and in turn the GCGR density) per voxel. The liver volume was therefore assessed on CT images, and the [^68Ga]Ga-DO3A-Tuna-2 liver uptake SUV55min data corrected for the corresponding change in hepatic volume on an individual level. However, this correction may also introduce errors especially since there are inhomogeneities in GCGR expression levels in different parts of the liver (Fig. 3A,C,E). Furthermore, this correction assumes negligible changes on GCGR expression on hepatocytes over time. The occupancy data before the different corrections are therefore reported separately in Fig. 4C,D. Further corrections regarding the potentially non-isotropic GCGR expression could be attempted, but regardless the impact on the occupancy is expected to be low, while potentially introducing noise to the assessment. [^68Ga]Ga-DO3A-Exendin-4 uptake in pancreas is not expected to require correction, as no similar mechanism for rapid volume change is present in pancreas.

human GCGR = target: T1, human GCGR (Homo sapiens, UniProt P47871); test: In vitro displacement of [^68Ga]Ga-DO3A-Tuna-2 in HEK293 cells overexpressing the human GCGR; assay type: binding; settings: pre-treatment with 50 µM, three independent experiments
T1 construct: expressed in transfected cells; host or cells: HEK293
Procedure: Figure 5 [^68Ga]Ga-DO3A-Tuna-2 was displaced by SAR525899 in vitro. HEK293 cells overexpressing the human GCGR were incubated with either [^68Ga]Ga-DO3A-Tuna-2 alone, or following pre-treatment with 50 µM SAR525899. Data from three independent repeated experiments. Stars indicate p < 0.001 as assessed by a Students t-test.

T1 sequence (P47871 26-477): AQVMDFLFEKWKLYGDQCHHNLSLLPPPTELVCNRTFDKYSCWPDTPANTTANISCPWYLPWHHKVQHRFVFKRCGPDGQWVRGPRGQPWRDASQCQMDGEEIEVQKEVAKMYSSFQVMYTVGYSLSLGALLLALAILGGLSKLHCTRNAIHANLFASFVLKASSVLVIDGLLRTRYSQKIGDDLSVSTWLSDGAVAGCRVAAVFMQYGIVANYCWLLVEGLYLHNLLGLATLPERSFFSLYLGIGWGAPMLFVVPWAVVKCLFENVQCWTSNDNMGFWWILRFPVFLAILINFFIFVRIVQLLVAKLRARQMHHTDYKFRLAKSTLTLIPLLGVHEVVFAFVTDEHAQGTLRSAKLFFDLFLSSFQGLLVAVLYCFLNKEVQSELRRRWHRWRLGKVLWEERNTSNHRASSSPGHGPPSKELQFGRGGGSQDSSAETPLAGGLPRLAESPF

In the case of `CCCCCCCCCCCCCCCC(=O)N[C@@H](CCC(=O)N[C@@H](CCC(=O)NCCCC[C@H](NC(=O)[C@H](CCC(N)=O)NC(=O)[C@H](CCCCN)NC(=O)[C@H](CO)NC(=O)[C@H](CC(C)C)NC(=O)[C@H](CC(=O)O)NC(=O)[C@H](CO)NC(=O)[C@@H](NC(=O)[C@H](Cc1ccccc1)NC(=O)[C@@H](NC(=O)CNC(=O)[C@H](CCC(N)=O)NC(=O)[C@@H](CO)NC(=O)[C@@H](N)Cc1c[nH]cn1)[C@@H](C)O)[C@@H](C)O)C(=O)N[C@@H](CCC(=O)O)C(=O)N[C@@H](CO)C(=O)N[C@@H](CCCCN)C(=O)N[C@@H](C)C(=O)N[C@@H](C)C(=O)N[C@@H](CCC(N)=O)C(=O)N[C@@H](CC(=O)O)C(=O)N[C@@H](Cc1ccccc1)C(=O)N[C@H](C(=O)N[C@@H](CCC(=O)O)C(=O)N[C@@H](Cc1c[nH]c2ccccc12)C(=O)N[C@@H](CC(C)C)C(=O)N[C@@H](CCCCN)C(=O)N[C@@H](C)C(=O)NCC(=O)NCC(=O)N1CCC[C@H]1C(=O)N[C@@H](CO)C(=O)N[C@@H](CO)C(=O)NCC(=O)N[C@@H](C)C(=O)N1CCC[C@H]1C(=O)N1CCC[C@H]1C(=O)N1CCC[C@H]1C(=O)N[C@@H](CO)C(N)=O)[C@@H](C)CC)C(=O)O)C(=O)O` [SAR425899], the “in vitro binding affinity at the GLP1R relative to the GCGR” value (GLP1R) is given as “~ fivefold”, the AUC(0-t) [1] is given as 217 ng·h/mL and the Cmax [1] is given as 25.1 ng/mL. The Tmax [1] was 7.62 h, the Liver volume change ([2]; 0.12mg) was -0.8% and the Liver volume change ([2]; 0.2mg) was -10.4%. For the same compound, the “decrease in liver volume” value ([2]; under treatment with SAR425899, average (SD)) was 10.4 (6.1) %, the “liver volume at follow up” value ([2]; under treatment with SAR425899, mean (SD), baseline 2.14 (0.45) dm^3) was 1.91 (0.36) dm^3 and the “displacement of [^68Ga]Ga-DO3A-Tuna-2” value (human GCGR; p < 0.001) was “competes for the same binding site”. The “displacement of [^68Ga]Ga-DO3A-Tuna-2” value (human GCGR; p < 0.001, listed as SAR525899) was “displaced”.
